# Experimental data from ChEMBL document CHEMBL4402510, “Caprazamycins: Promising lead structures acting on a novel antibacterial target MraY” (Eur J Med Chem, 2019).
# Legend:
# [1] = test system: Haemophilus influenzae; assay: Antibacterial activity against Haemophilus influenzae ATCC 10211; format: functional
# [2] = test system: Enterococcus faecalis; assay: Antibacterial activity against Enterococcus faecalis ATCC 29212; format: functional
# [3] = test system: Staphylococcus aureus; assay: Antibacterial activity against methicillin resistant Staphylococcus aureus SR3637; format: functional
# [4] = test system: Staphylococcus aureus; assay: Antibacterial activity against methicillin susceptible Staphylococcus aureus after 20 hrs by NCCLS-based two-fold broth dilution method; format: functional; conditions: read-out: MIC
# [5] = test system: Staphylococcus aureus; assay: Antibacterial activity against methicillin resistant Staphylococcus aureus after 20 hrs by NCCLS-based two-fold broth dilution method; format: functional; conditions: read-out: MIC
# [6] = test system: Enterococcus faecalis; assay: Antibacterial activity against t Enterococcus faecalis VRE after 20 hrs by NCCLS-based two-fold broth dilution method; format: functional; conditions: read-out: MIC
# [7] = test system: Haemophilus influenzae; assay: Antibacterial activity against Haemophilus influenzae after 20 hrs by NCCLS-based two-fold broth dilution method; format: functional
# [8] = test system: Pseudomonas aeruginosa; assay: Antibacterial activity against Pseudomonas aeruginosa YY165; format: functional
# [9] = test system: Enterococcus faecium; assay: Antibacterial activity against t Enterococcus faecium after 20 hrs by NCCLS-based two-fold broth dilution method; format: functional
# [10] = test system: Enterococcus faecium; assay: Antibacterial activity against Enterococcus faecium SR7917 (VRE); format: functional
# [11] = test system: Enterococcus faecalis; assay: Antibacterial activity against t Enterococcus faecalis after 20 hrs by NCCLS-based two-fold broth dilution method; format: functional; conditions: read-out: MIC
# [12] = test system: Enterococcus faecalis; assay: Antibacterial activity against Enterococcus faecalis SR7914 (VRE); format: functional
# [13] = test system: Staphylococcus aureus; assay: Antibacterial activity against methicillin susceptible Staphylococcus aureus ATCC 29213; format: functional
# [14] = test system: Pseudomonas aeruginosa; assay: Antibacterial activity against Pseudomonas aeruginosa after 20 hrs by NCCLS-based two-fold broth dilution method; format: functional
# [15] = test system: Enterococcus faecium; assay: Antibacterial activity against Enterococcus faecium ATCC 19434; format: functional
# [16] = test system: Streptococcus pneumoniae; assay: Antibacterial activity against Streptococcus pneumoniae after 20 hrs by NCCLS-based two-fold broth dilution method; format: functional
# [17] = test system: Staphylococcus aureus; assay: Antibacterial activity against multi drug resistance Staphylococcus aureus after 20 hrs by NCCLS-based two-fold broth dilution method; format: functional
# [18] = test system: Staphylococcus aureus; assay: Antibacterial activity against Staphylococcus aureus after 20 hrs by NCCLS-based two-fold broth dilution method; format: functional
# [19] = test system: Mycolicibacterium smegmatis; assay: Antibacterial activity against Mycobacterium smegmatis after 20 hrs by NCCLS-based two-fold broth dilution method; format: functional
# [20] = test system: Pseudomonas aeruginosa; assay: Antibacterial activity against Pseudomonas aeruginosa PAO1 deltamexB; format: functional
# [21] = test system: Escherichia coli; assay: Antibacterial activity against Escherichia coli ATCC 25922; format: functional
# [22] = test system: Enterococcus faecium; assay: Antibacterial activity against t Enterococcus faecium VRE after 20 hrs by NCCLS-based two-fold broth dilution method; format: functional; conditions: read-out: MIC
# [23] = test system: Streptococcus pneumoniae; assay: Antibacterial activity against Streptococcus pneumoniae; format: functional
# [24] = test system: Acinetobacter baumannii; assay: Antibacterial activity against Acinetobacter baumannii ATCC 19606; format: functional; conditions: ATCC 19606 = CIP 70.34 = JCM 6841
# [25] = test system: Escherichia coli; assay: Antibacterial activity against Escherichia coli after 20 hrs by NCCLS-based two-fold broth dilution method; format: functional
# [26] = target: Phospho-N-acetylmuramoyl-pentapeptide-transferase (Escherichia coli, UniProt E2QF15); assay: Inhibition of MraY in Escherichia coli
# [27] = target: T1, Phospho-N-acetylmuramoyl-pentapeptide-transferase (Bacillus subtilis (strain 168), UniProt Q03521); assay: Inhibition of MraY in Bacillus subtilis using UDP-MurNAc-[14C]pentapeptide as substrate by radioactivity scanning assay
# T1 sequence (Q03521 whole entry): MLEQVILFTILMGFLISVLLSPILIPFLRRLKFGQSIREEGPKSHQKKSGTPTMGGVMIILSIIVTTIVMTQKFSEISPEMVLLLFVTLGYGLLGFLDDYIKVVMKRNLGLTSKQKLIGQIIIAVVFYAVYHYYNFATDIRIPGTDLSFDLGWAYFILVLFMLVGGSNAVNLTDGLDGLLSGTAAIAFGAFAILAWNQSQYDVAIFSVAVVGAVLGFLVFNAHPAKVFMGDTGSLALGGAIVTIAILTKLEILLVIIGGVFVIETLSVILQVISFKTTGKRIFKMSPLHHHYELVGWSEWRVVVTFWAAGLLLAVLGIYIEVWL
# [28] = test system: Mycolicibacterium smegmatis; assay: Antibacterial activity against Mycobacterium smegmatis; format: functional
# [29] = test system: Mycolicibacterium fortuitum; assay: Antibacterial activity against Mycobacterium fortuitum; format: functional
# [30] = test system: Mycobacterium avium; assay: Antibacterial activity against Mycobacterium avium; format: functional
# [31] = test system: Mycobacterium intracellulare; assay: Antibacterial activity against Mycobacterium intracellulare; format: functional
# [32] = test system: Staphylococcus aureus; assay: Antibacterial activity against Staphylococcus aureus; format: functional
# [33] = test system: Bacillus subtilis; assay: Antibacterial activity against Bacillus subtilis; format: functional
# [34] = test system: Escherichia coli; assay: Antibacterial activity against Escherichia coli; format: functional
# [35] = test system: Mycobacterium tuberculosis; assay: Antibacterial activity against Mycobacterium tuberculosis; format: functional
# Phospho-N-acetylmuramoyl-pentapeptide-transferase (Escherichia coli, UniProt E2QF15), sequence (E2QF15 whole entry): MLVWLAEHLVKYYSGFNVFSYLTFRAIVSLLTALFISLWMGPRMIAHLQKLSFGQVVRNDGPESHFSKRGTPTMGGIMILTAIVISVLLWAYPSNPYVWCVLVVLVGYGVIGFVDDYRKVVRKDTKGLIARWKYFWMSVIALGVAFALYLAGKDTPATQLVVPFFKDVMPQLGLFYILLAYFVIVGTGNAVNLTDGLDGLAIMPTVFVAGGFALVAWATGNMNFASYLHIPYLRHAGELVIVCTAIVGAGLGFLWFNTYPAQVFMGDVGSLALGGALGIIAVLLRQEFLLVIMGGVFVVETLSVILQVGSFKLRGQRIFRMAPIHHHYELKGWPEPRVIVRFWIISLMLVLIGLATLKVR
compound,measurement,setting,value
CCCCCCCCC(CCCCCCCC)C(=O)N[C@@H]1CCN[C@@H]([C@H](O[C@@H]2O[C@H](CN)[C@@H](O)[C@H]2O)[C@H]2O[C@@H](n3ccc(=O)[nH]c3=O)[C@H](O)[C@@H]2O)C1,MIC,[1],32 µg/mL
same,MIC,[2],4 µg/mL
same,MIC,[3],8 µg/mL
same,MIC,[4],4 µg/mL
same,MIC,[5],8 µg/mL
same,MIC,[6],4 µg/mL
same,MIC,[7],16 µg/mL
same,MIC,[8],16 µg/mL
same,MIC,[9],8 µg/mL
same,MIC,[10],8 µg/mL
same,MIC,[11],4 µg/mL
same,MIC,[12],4 µg/mL
same,MIC,[13],4 µg/mL
same,MIC,[14],32 µg/mL
same,MIC,[15],8 µg/mL
same,MIC,[16],16 µg/mL
CCCCCCCCCCCCCCCC(=O)O[C@H]1CN[C@@H]([C@H](O[C@@H]2O[C@H](CN)[C@@H](O)[C@H]2O)[C@H]2O[C@@H](n3ccc(=O)[nH]c3=O)[C@H](O)[C@@H]2O)C(=O)N(C)[C@@H]1C(=O)O [DESMETHYLPALMITOYLCAPRAZOL],MIC,[17],3.13 µg/mL
same,MIC,[18],1.56 µg/mL
same,MIC,[5],6.25 to 12.5 µg/mL
same,MIC,[6],12.5 µg/mL
same,MIC,[19],25 µg/mL
CCCCCCCCCCCCCCCC(=O)N[C@H]1CCN[C@H]([C@H](O[C@@H]2O[C@H](CN)[C@@H](O)[C@H]2O)[C@H]2O[C@@H](n3ccc(=O)[nH]c3=O)[C@H](O)[C@@H]2O)C1,MIC,[1],32 µg/mL
same,MIC,[20],> 64 µg/mL
same,MIC,[2],8 µg/mL
same,MIC,[3],8 µg/mL
same,MIC,[4],8 µg/mL
same,MIC,[5],8 µg/mL
same,MIC,[6],8 µg/mL
same,MIC,[7],32 µg/mL
same,MIC,[8],32 µg/mL
same,MIC,[9],8 µg/mL
same,MIC,[10],4 µg/mL
same,MIC,[11],8 µg/mL
same,MIC,[21],16 µg/mL
same,MIC,[12],8 µg/mL
same,MIC,[22],4 µg/mL
same,MIC,[13],8 µg/mL
same,MIC,[23],> 64 µg/mL
same,MIC,[24],> 64 µg/mL
same,MIC,[14],32 µg/mL
same,MIC,[15],8 µg/mL
same,MIC,[25],16 µg/mL
NC[C@H]1O[C@@H](O[C@@H](CO)[C@H]2O[C@@H](n3ccc(=O)[nH]c3=O)[C@H](O)[C@@H]2O)[C@H](O)[C@@H]1O,IC50,[26],5 µM
NC[C@H]1O[C@@H](O[C@@H](c2cn(Cc3ccc(COc4ccc(C(=O)c5ccccc5)cc4)cc3)nn2)[C@H]2O[C@@H](n3ccc(=O)[nH]c3=O)[C@H](O)[C@@H]2O)[C@H](O)[C@@H]1O,IC50,[27],50 µM
CCCCCCCCCCCCCCCC(=O)O[C@H]1CN(C)[C@@H]([C@H](O[C@@H]2O[C@H](CN)[C@@H](O)[C@H]2O)[C@H]2O[C@@H](n3ccc(=O)[nH]c3=O)[C@H](O)[C@@H]2O)C(=O)N(C)[C@@H]1C(=O)O [PALMITOYL CAPRAZOL],MIC,[17],3.13 µg/mL
same,MIC,[18],1.56 µg/mL
same,MIC,[5],6.25 µg/mL
same,MIC,[6],12.5 µg/mL
same,MIC,[19],6.25 µg/mL
CO[C@@H]1[C@@H](OC)[C@H](C)O[C@@H](OC(=O)C[C@@H](C)CC(=O)O[C@@H](CCCCCCCCCCC(C)C)CC(=O)O[C@H]2CN(C)[C@@H]([C@H](O[C@@H]3O[C@H](CN)[C@@H](O)[C@H]3O)[C@H]3O[C@@H](n4ccc(=O)[nH]c4=O)[C@H](O)[C@@H]3O)C(=O)N(C)[C@@H]2C(=O)O)[C@@H]1OC,MIC,[28],1.56 to 3.13 µg/mL
same,MIC,[29],50 µg/mL
same,MIC,[30],6.25 to 50 µg/mL
same,MIC,[31],1.56 to 25 µg/mL
same,MIC,[32],1.56 to 6.25 µg/mL
same,MIC,[33],6.25 to 12.5 µg/mL
same,MIC,[34],100 µg/mL
same,MIC,[35],3.13 to 12.5 µg/mL
